# Test results as given in PubChem BioAssay (NCI).
# Where “and” joins values, the source holds several entries; their conditions need not be identical. Equal values may be shown once.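 Each compound was tested at five concentrations against cells in 96-well plates for 48 hours. GI50 marks 50% less growth. TGI: concentration producing complete growth inhibition.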
# Experiments:
# Experiment in all cases: inhibition of tumour cell growth, NCI panel, 48 h
# SF-539 CNS = system: SF-539 CNS
# BT-549 breast = system: BT-549 breast
# HOP-62 NSCLC = system: HOP-62 NSCLC
# ACHN renal = system: ACHN renal
# A549 NSCLC = system: A549 NSCLC
# MALME-3M melanoma = system: MALME-3M melanoma
# COLO 205 colon = system: COLO 205 colon
# NCI-H460 lung = system: NCI-H460 lung
# SF-268 CNS = system: SF-268 CNS
# SK-MEL-28 melanoma = system: SK-MEL-28 melanoma
# T-47D breast = system: T-47D breast
# MDA-MB-435 = system: MDA-MB-435
# SK-MEL-2 melanoma = system: SK-MEL-2 melanoma
# OVCAR-5 ovarian = system: OVCAR-5 ovarian
# NCI-H522 lung = system: NCI-H522 lung
# NCI-H226 lung = system: NCI-H226 lung
# IGROV1 ovarian = system: IGROV1 ovarian
# 786-0 renal = system: 786-0 renal
# SW-620 colon = system: SW-620 colon
# KM12 colon = system: KM12 colon
# M14 melanoma = system: M14 melanoma
# SK-MEL-5 melanoma = system: SK-MEL-5 melanoma
# EKVX NSCLC = system: EKVX NSCLC
# RXF 393 renal = system: RXF 393 renal
# UACC-62 melanoma = system: UACC-62 melanoma
# SN12C renal = system: SN12C renal
# RPMI-8226 leukemia = system: RPMI-8226 leukemia
# LOX IMVI melanoma = system: LOX IMVI melanoma
# CAKI-1 renal = system: CAKI-1 renal
# SK-OV-3 ovarian = system: SK-OV-3 ovarian
# MDA-MB-231 breast = system: MDA-MB-231 breast
# DU-145 prostate = system: DU-145 prostate
# PC-3 prostate = system: PC-3 prostate
# NCI/ADR-RES ovarian = system: NCI/ADR-RES ovarian
# CCRF-CEM leukemia = system: CCRF-CEM leukemia
# TK-10 renal = system: TK-10 renal
# HCC-2998 colon = system: HCC-2998 colon
# UACC-257 melanoma = system: UACC-257 melanoma
# HCT-116 colon = system: HCT-116 colon
# A498 renal = system: A498 renal
# OVCAR-4 ovarian = system: OVCAR-4 ovarian
# OVCAR-8 ovarian = system: OVCAR-8 ovarian
# SF-295 CNS = system: SF-295 CNS
# SNB-19 CNS = system: SNB-19 CNS
# U251 CNS = system: U251 CNS
# HCT-15 colon = system: HCT-15 colon
# UO-31 renal = system: UO-31 renal
# SNB-75 CNS = system: SNB-75 CNS
# HT29 colon = system: HT29 colon
# NCI-H23 lung = system: NCI-H23 lung
# HS 578T breast = system: HS 578T breast
# OVCAR-3 ovarian = system: OVCAR-3 ovarian
# MCF7 breast = system: MCF7 breast
# SR leukemia = system: SR leukemia
# HOP-92 NSCLC = system: HOP-92 NSCLC
# K-562 leukemia = system: K-562 leukemia
# MOLT-4 leukemia = system: MOLT-4 leukemia
# HL-60(TB) leukemia = system: HL-60(TB) leukemia
smiles,measurement,setting,value
Nc1ccc(C(=O)NN2C(=O)[C@H](Cl)C2c2ccc(Cl)cc2)cc1 (some centres undefined),TGI,SF-539 CNS,3.6 µM
same,GI50,BT-549 breast,1.95 µM
same,TGI,BT-549 breast,4.9 µM
same,TGI,HOP-62 NSCLC,3.12 µM
same,TGI,ACHN renal,2.48 µM
same,TGI,A549 NSCLC,8.49 µM
same,TGI,MALME-3M melanoma,4.13 µM
same,TGI,COLO 205 colon,4.14 µM
same,TGI,NCI-H460 lung,> 100 µM
same,TGI,SF-268 CNS,1.92 µM
same,TGI,SK-MEL-28 melanoma,1.8 µM
same,TGI,T-47D breast,3.88 µM
same,TGI,MDA-MB-435,4.16 µM
same,TGI,SK-MEL-2 melanoma,4.37 µM
same,TGI,OVCAR-5 ovarian,8.23 µM
same,TGI,NCI-H522 lung,> 100 µM
same,TGI,NCI-H226 lung,2.65 µM
same,TGI,IGROV1 ovarian,4.54 µM
same,TGI,786-0 renal,2.6 µM
same,TGI,SW-620 colon,4.96 µM
same,TGI,KM12 colon,2.99 µM
same,TGI,M14 melanoma,3.11 µM
same,TGI,SK-MEL-5 melanoma,4.27 µM
same,TGI,EKVX NSCLC,12.8 µM
same,TGI,RXF 393 renal,> 100 µM
same,TGI,UACC-62 melanoma,3.69 µM
same,TGI,SN12C renal,2.83 µM
same,TGI,RPMI-8226 leukemia,5.32 µM
same,GI50,LOX IMVI melanoma,0.113 µM
same,TGI,LOX IMVI melanoma,0.233 µM
same,TGI,CAKI-1 renal,2.94 µM
same,TGI,SK-OV-3 ovarian,4.27 µM
same,TGI,MDA-MB-231 breast,3.55 µM
same,TGI,DU-145 prostate,4.06 µM
same,TGI,PC-3 prostate,3.2 µM
same,TGI,NCI/ADR-RES ovarian,3.83 µM
same,GI50,CCRF-CEM leukemia,0.31 µM
same,TGI,CCRF-CEM leukemia,1.41 µM
same,TGI,TK-10 renal,2.57 µM
same,TGI,HCC-2998 colon,3.01 µM
same,TGI,UACC-257 melanoma,3.63 µM
same,TGI,HCT-116 colon,0.476 µM
same,GI50,A498 renal,1.62 µM
same,TGI,A498 renal,3.21 µM
same,TGI,OVCAR-4 ovarian,> 100 µM
same,TGI,OVCAR-8 ovarian,3.68 µM
same,TGI,SF-295 CNS,9.31 µM
same,TGI,SNB-19 CNS,3.69 µM
same,TGI,U251 CNS,2.26 µM
same,TGI,HCT-15 colon,2.79 µM
same,TGI,UO-31 renal,4.35 µM
same,TGI,SNB-75 CNS,0.797 µM
same,TGI,HT29 colon,0.61 µM
same,TGI,NCI-H23 lung,2.34 µM
same,TGI,HS 578T breast,4.02 µM
same,TGI,OVCAR-3 ovarian,2.55 µM
c1ccc(C(NC2CCCCC2NCCNC2CCCCC2NC(c2ccccc2)(c2ccccc2)c2ccccc2)(c2ccccc2)c2ccccc2)cc1 (centres undefined),TGI,SF-539 CNS,> 100 µM
same,TGI,BT-549 breast,54.1 µM
same,TGI,HOP-62 NSCLC,> 100 µM
same,TGI,MCF7 breast,42.1 µM
same,TGI,ACHN renal,> 100 µM
same,TGI,A549 NSCLC,> 100 µM
same,TGI,COLO 205 colon,> 100 µM
same,TGI,NCI-H460 lung,> 100 µM
same,TGI,SF-268 CNS,> 100 µM
same,TGI,SK-MEL-28 melanoma,> 100 µM
same,TGI,T-47D breast,> 100 µM
same,TGI,MDA-MB-435,32.7 µM
same,TGI,SK-MEL-2 melanoma,> 100 µM
same,TGI,OVCAR-5 ovarian,> 100 µM
same,TGI,NCI-H522 lung,39.5 µM
same,TGI,IGROV1 ovarian,> 100 µM
same,TGI,SW-620 colon,> 100 µM
same,TGI,SR leukemia,> 100 µM
same,TGI,KM12 colon,> 100 µM
same,TGI,SK-MEL-5 melanoma,> 100 µM
same,TGI,EKVX NSCLC,> 100 µM
same,TGI,HOP-92 NSCLC,33.7 µM
same,TGI,UACC-62 melanoma,> 100 µM
same,TGI,SN12C renal,> 100 µM
same,TGI,RPMI-8226 leukemia,> 100 µM
same,TGI,LOX IMVI melanoma,47.7 µM
same,TGI,CAKI-1 renal,> 100 µM
same,TGI,K-562 leukemia,> 100 µM
same,TGI,SK-OV-3 ovarian,> 100 µM
same,TGI,MDA-MB-231 breast,> 100 µM
same,TGI,DU-145 prostate,> 100 µM
same,TGI,PC-3 prostate,> 100 µM
same,TGI,CCRF-CEM leukemia,> 100 µM
same,TGI,TK-10 renal,> 100 µM
same,TGI,UACC-257 melanoma,> 100 µM
same,TGI,HCT-116 colon,53.6 µM
same,TGI,A498 renal,65.5 µM
same,TGI,OVCAR-4 ovarian,> 100 µM
same,TGI,OVCAR-8 ovarian,> 100 µM
same,TGI,SF-295 CNS,> 100 µM
same,TGI,SNB-19 CNS,> 100 µM
same,TGI,U251 CNS,33.9 µM
same,TGI,HCT-15 colon,> 100 µM
same,TGI,UO-31 renal,71.2 µM
same,TGI,HT29 colon,> 100 µM
same,TGI,NCI-H23 lung,> 100 µM
same,TGI,MOLT-4 leukemia,> 100 µM
same,TGI,HS 578T breast,45.3 µM
same,TGI,OVCAR-3 ovarian,> 100 µM
COc1ccc2c(c1)NC(=O)CN2c1nc(NC2CC2)nc2ccccc12,GI50,SF-539 CNS,0.00232 µM
same,TGI,SF-539 CNS,0.00804 µM
same,GI50,BT-549 breast,0.00423 µM
same,TGI,BT-549 breast,3.11 µM
same,GI50,HOP-62 NSCLC,0.00433 µM
same,TGI,HOP-62 NSCLC,10.5 µM
same,GI50,MCF7 breast,0.000386 µM
same,TGI,MCF7 breast,14.7 µM
same,TGI,ACHN renal,> 100 µM
same,GI50,A549 NSCLC,0.00128 µM
same,TGI,A549 NSCLC,> 100 µM
same,GI50,MALME-3M melanoma,2.01 µM
same,TGI,MALME-3M melanoma,84.7 µM
same,GI50,COLO 205 colon,0.000395 µM
same,TGI,COLO 205 colon,0.00241 µM
same,GI50,NCI-H460 lung,0.000405 µM
same,TGI,NCI-H460 lung,> 100 µM
same,GI50,SF-268 CNS,0.00204 µM
same,TGI,SF-268 CNS,14.4 µM
same,GI50,SK-MEL-28 melanoma,0.847 µM
same,TGI,SK-MEL-28 melanoma,> 100 µM
same,GI50,T-47D breast,0.23 µM
same,TGI,T-47D breast,7.13 µM
same,TGI,OVCAR-5 ovarian,> 100 µM
same,TGI,NCI-H226 lung,> 100 µM
same,TGI,IGROV1 ovarian,6.43 µM
same,GI50,786-0 renal,0.00905 µM
same,TGI,786-0 renal,18.6 µM
same,GI50,SW-620 colon,0.000383 µM
same,TGI,SW-620 colon,> 100 µM
same,GI50,SR leukemia,0.000274 µM
same,GI50,HL-60(TB) leukemia,0.000503 µM
same,TGI,HL-60(TB) leukemia,0.00313 µM
same,GI50,KM12 colon,0.000396 µM
same,TGI,KM12 colon,> 100 µM
same,GI50,M14 melanoma,0.000367 µM
same,TGI,M14 melanoma,> 100 µM
same,GI50,SK-MEL-5 melanoma,0.000552 µM
same,TGI,EKVX NSCLC,77.5 µM
same,GI50,HOP-92 NSCLC,2.66 µM
same,TGI,HOP-92 NSCLC,17.5 µM
same,GI50,RXF 393 renal,0.00178 µM
same,GI50,UACC-62 melanoma,0.000876 µM
same,TGI,UACC-62 melanoma,13.2 µM
same,GI50,SN12C renal,0.00491 µM
same,TGI,SN12C renal,> 100 µM
same,GI50,RPMI-8226 leukemia,0.00182 µM
same,TGI,RPMI-8226 leukemia,16.4 µM
same,GI50,LOX IMVI melanoma,0.000901 µM
same,TGI,LOX IMVI melanoma,55.5 µM
same,TGI,CAKI-1 renal,17.9 µM
same,GI50,K-562 leukemia,0.000336 µM
same,TGI,K-562 leukemia,> 100 µM
same,GI50,SK-OV-3 ovarian,0.00182 µM
same,GI50,MDA-MB-231 breast,0.000858 µM
same,TGI,MDA-MB-231 breast,> 100 µM
same,GI50,DU-145 prostate,0.000452 µM
same,TGI,DU-145 prostate,2.83 µM
same,GI50,PC-3 prostate,0.000563 µM
same,TGI,PC-3 prostate,> 100 µM
same,GI50,NCI/ADR-RES ovarian,0.000651 µM
same,TGI,NCI/ADR-RES ovarian,0.00677 µM
same,GI50,CCRF-CEM leukemia,0.000385 µM
same,TGI,CCRF-CEM leukemia,> 100 µM
same,TGI,TK-10 renal,14.9 µM
same,GI50,HCC-2998 colon,0.00106 µM
same,TGI,HCC-2998 colon,1.42 µM
same,GI50,HCT-116 colon,0.000424 µM
same,TGI,HCT-116 colon,13.3 µM
same,GI50,A498 renal,0.00185 µM
same,TGI,OVCAR-4 ovarian,> 100 µM
same,GI50,OVCAR-8 ovarian,0.00234 µM
same,TGI,OVCAR-8 ovarian,46.9 µM
same,GI50,SF-295 CNS,0.00211 µM
same,TGI,SF-295 CNS,0.00611 µM and 0.0191 µM
same,GI50,SNB-19 CNS,0.00154 µM
same,TGI,SNB-19 CNS,24.5 µM
same,GI50,U251 CNS,0.00106 µM
same,TGI,U251 CNS,18.4 µM
same,GI50,HCT-15 colon,0.000556 µM
same,TGI,HCT-15 colon,> 100 µM
same,GI50,UO-31 renal,0.031 µM
same,TGI,UO-31 renal,10.2 µM
same,GI50,SNB-75 CNS,0.00199 µM
same,TGI,SNB-75 CNS,18.7 µM
same,GI50,HT29 colon,0.000347 µM
same,GI50,NCI-H23 lung,0.00112 µM
same,TGI,NCI-H23 lung,16.2 µM
same,GI50,MOLT-4 leukemia,0.00255 µM
same,TGI,MOLT-4 leukemia,> 100 µM
same,GI50,HS 578T breast,0.00359 µM
same,TGI,HS 578T breast,25 µM
same,GI50,OVCAR-3 ovarian,0.000368 µM
same,TGI,OVCAR-3 ovarian,0.011 µM
